# According to patent US20080103205A1, “Pesticidal compositions and methods of use” (priority 2006, published 2008):
# Read-outs that look alike come from different tables or passages of the source.
# How the values were obtained:
# Caenorhabditis elegans = test: Toxicity test, adult Caenorhabditis elegans, 96 well micro plate; type: in vivo; settings: Caenorhabditis elegans
# Method: Methodology: Toxicity tests were conducted using J2 juveniles of Meloidogyne incognita adult Caenorhabditis elegans collected from nematode-infested tomato plant roots and culture Petri plates, respectively. Test concentrations of 50, 100, 200, 300, or 400 ppm were prepared in 0.2% dimethylsulfoxide (DMSO) in tap water. Aliquots (300 microliters (ul)) were applied to a 96 well micro plate and a 20 ul aqueous solution containing nematodes was added. The number of nematodes in 20 ul ranged from 17 to 30. Micro plates were sealed with Parafilm™ and incubated at room temperature. Similar tests conducted with 0.2% DMSO in tap water served as controls. Nematode mortality was checked at 24, 48, 72, 120, and 168 hr after incubation. Nematodes that were motionless for 30 sec when observed under a stereomicroscope were considered paralyzed and included in mortality counts. Each concentration was replicated five times and mean percent mortality was calculated after correcting for control mortality using Abbott's formula.
# Data Analysis: Mortality data were analyzed using PROC PROBIT (SAS) program and LC50 values were estimated.
# [1] = system: European corn borer (Ostrinia nubilalis); test: Diet surface test on European corn borer larvae (2nd instar); type: in vivo; settings: for No. dead: 10 larvae; for mortality at 6.25 ppm / mortality at 12.5 ppm / mortality at 25 ppm / mortality at 50 ppm: Ostrinia nubilalis
# Method: Concentrations of 6.25, 12.5, 25, or 50 ppm AT blocker were prepared in 95% ethyl alcohol (EtOH). 95% EtOH alone served as control. European corn borer (ECB) diet prepared from the powdered diet supplied by French Agricultural Research, Inc. Diet (1-2 ml) was poured into small cups and allowed to cool to room temperature. Test solution (100 ul) was placed onto the diet surface and allowed to evaporate the solvent. Each concentration of chemical had 2 sets of 10 cups each. One late 2nd instar larva was placed in each cup and covered with lid having perforations for aeration. Cups were placed in an incubator for 7 days at 25±1° C. and 70±5% RH. After seven days, the weight of each larva was taken and any mortality was recorded. Then, the surviving larvae were transferred to fresh diet cups holding sufficient diet (5-6 ml) without chemicals and incubated at 25±1° C. and 70±5% RH until pupation. Weights of larvae were taken 14 days after transferring to fresh diet (21 days after start of treatment). Finally, the number of days until pupation was recorded.
# Anion transporters caused larval death and a reduction in weight gain within 7 days exposure. The effect persisted for 2 weeks time on untreated diet, but total time to pupation was relatively unaffected.
# [2] = 24 h, read-out: Corrected Mortality (%)
# [3] = 48 h, read-out: Corrected Mortality (%)
# [4] = 72 h, read-out: Corrected Mortality (%)
# [5] = 120 h, read-out: Corrected Mortality (%)
# [6] = 168 h, read-out: Corrected Mortality (%)
# [7] = 6.25 ppm, 21 days after feeding
# [8] = 12.5 ppm, 21 days after feeding
# [9] = 168 h, 6.25 ppm, 7 days after feeding
# [10] = 168 h, 12.5 ppm, 7 days after feeding
# [11] = 504 h, 6.25 ppm, 21 days after feeding
# [12] = 504 h, 12.5 ppm, 21 days after feeding
# [13] = 504 h, 50 ppm, 21 days after feeding
smiles,measurement,setting,value
"O=C(O)c1c2ccccc2cc2ccccc12 [9-AC, anthracene-9-carboxylic acid]",mortality at 50 ppm,Caenorhabditis elegans; 24 h,12%
same,mortality at 100 ppm,Caenorhabditis elegans; 24 h,14%
same,mortality at 200 ppm,Caenorhabditis elegans; 24 h,16%
same,mortality at 300 ppm,Caenorhabditis elegans; 24 h,20%
same,mortality at 400 ppm,Caenorhabditis elegans; 24 h,27%
same,mortality at 50 ppm,Caenorhabditis elegans; [2],10%
same,mortality at 100 ppm,Caenorhabditis elegans; [2],12%
same,mortality at 200 ppm,Caenorhabditis elegans; [2],14%
same,mortality at 300 ppm,Caenorhabditis elegans; [2],18%
same,mortality at 400 ppm,Caenorhabditis elegans; [2],26%
same,mortality at 50 ppm,Caenorhabditis elegans; 48 h,25%
same,mortality at 100 ppm,Caenorhabditis elegans; 48 h,30%
same,mortality at 200 ppm,Caenorhabditis elegans; 48 h,33%
same,mortality at 300 ppm,Caenorhabditis elegans; 48 h,39%
same,mortality at 400 ppm,Caenorhabditis elegans; 48 h,58%
same,mortality at 50 ppm,Caenorhabditis elegans; [3],23%
same,mortality at 100 ppm,Caenorhabditis elegans; [3],28%
same,mortality at 200 ppm,Caenorhabditis elegans; [3],31%
same,mortality at 300 ppm,Caenorhabditis elegans; [3],37%
same,mortality at 400 ppm,Caenorhabditis elegans; [3],57%
same,mortality at 50 ppm,Caenorhabditis elegans; 72 h,44%
same,mortality at 100 ppm,Caenorhabditis elegans; 72 h,48%
same,mortality at 200 ppm,Caenorhabditis elegans; 72 h,58%
same,mortality at 300 ppm,Caenorhabditis elegans; 72 h,65%
same,mortality at 400 ppm,Caenorhabditis elegans; 72 h,83%
same,mortality at 50 ppm,Caenorhabditis elegans; [4],41%
same,mortality at 100 ppm,Caenorhabditis elegans; [4],45%
same,mortality at 200 ppm,Caenorhabditis elegans; [4],56%
same,mortality at 300 ppm,Caenorhabditis elegans; [4],63%
same,mortality at 400 ppm,Caenorhabditis elegans; [4],81%
same,mortality at 50 ppm,Caenorhabditis elegans; 120 h,66%
same,mortality at 100 ppm,Caenorhabditis elegans; 120 h,73%
same,mortality at 200 ppm,Caenorhabditis elegans; 120 h,85%
same,mortality at 300 ppm,Caenorhabditis elegans; 120 h,90%
same,mortality at 400 ppm,Caenorhabditis elegans; 120 h,99%
same,mortality at 50 ppm,Caenorhabditis elegans; [5],64%
same,mortality at 100 ppm,Caenorhabditis elegans; [5],71%
same,mortality at 200 ppm,Caenorhabditis elegans; [5],84%
same,mortality at 300 ppm,Caenorhabditis elegans; [5],89%
same,mortality at 400 ppm,Caenorhabditis elegans; [5],99%
same,mortality at 50 ppm,Caenorhabditis elegans; 168 h,89%
same,mortality at 100 ppm,Caenorhabditis elegans; 168 h,93%
same,mortality at 200 ppm,Caenorhabditis elegans; 168 h,98%
same,mortality at 300 ppm,Caenorhabditis elegans; 168 h,100%
same,mortality at 400 ppm,Caenorhabditis elegans; 168 h,100%
same,mortality at 50 ppm,Caenorhabditis elegans; [6],89%
same,mortality at 100 ppm,Caenorhabditis elegans; [6],92%
same,mortality at 200 ppm,Caenorhabditis elegans; [6],98%
same,mortality at 300 ppm,Caenorhabditis elegans; [6],100%
same,mortality at 400 ppm,Caenorhabditis elegans; [6],100%
same,No. dead,"[1]; 6.25 ppm, 7 days after feeding",0
same,No. dead,[1]; [7],0
same,No. dead,"[1]; 12.5 ppm, 7 days after feeding",0
same,No. dead,[1]; [8],0
same,Days for pupation,[1]; 25 ppm,26.0 days
same,No. dead,"[1]; 25 ppm, 7 days after feeding",0
same,mortality at 6.25 ppm,[1]; [9],0%
same,mortality at 12.5 ppm,[1]; [10],0%
same,mortality at 25 ppm,"[1]; 168 h, 25 ppm, 7 days after feeding",0%
same,mortality at 6.25 ppm,[1]; [11],0%
same,mortality at 12.5 ppm,[1]; [12],0%
same,mortality at 50 ppm,[1]; [13],60%
"O=C(O)c1cc([N+](=O)[O-])ccc1NCCCc1ccccc1 [NPPB, 5-Nitro-2-(3-phenylpropylamino)benzoic acid]",mortality at 50 ppm,Caenorhabditis elegans; 24 h,14%
same,mortality at 100 ppm,Caenorhabditis elegans; 24 h,17%
same,mortality at 200 ppm,Caenorhabditis elegans; 24 h,20%
same,mortality at 300 ppm,Caenorhabditis elegans; 24 h,22%
same,mortality at 400 ppm,Caenorhabditis elegans; 24 h,24%
same,mortality at 50 ppm,Caenorhabditis elegans; [2],10%
same,mortality at 100 ppm,Caenorhabditis elegans; [2],14%
same,mortality at 200 ppm,Caenorhabditis elegans; [2],18%
same,mortality at 300 ppm,Caenorhabditis elegans; [2],20%
same,mortality at 400 ppm,Caenorhabditis elegans; [2],22%
same,mortality at 50 ppm,Caenorhabditis elegans; 48 h,26%
same,mortality at 100 ppm,Caenorhabditis elegans; 48 h,36%
same,mortality at 200 ppm,Caenorhabditis elegans; 48 h,44%
same,mortality at 300 ppm,Caenorhabditis elegans; 48 h,49%
same,mortality at 400 ppm,Caenorhabditis elegans; 48 h,53%
same,mortality at 50 ppm,Caenorhabditis elegans; [3],22%
same,mortality at 100 ppm,Caenorhabditis elegans; [3],33%
same,mortality at 200 ppm,Caenorhabditis elegans; [3],41%
same,mortality at 300 ppm,Caenorhabditis elegans; [3],46%
same,mortality at 400 ppm,Caenorhabditis elegans; [3],51%
same,mortality at 50 ppm,Caenorhabditis elegans; 72 h,47%
same,mortality at 100 ppm,Caenorhabditis elegans; 72 h,62%
same,mortality at 200 ppm,Caenorhabditis elegans; 72 h,73%
same,mortality at 300 ppm,Caenorhabditis elegans; 72 h,80%
same,mortality at 400 ppm,Caenorhabditis elegans; 72 h,84%
same,mortality at 50 ppm,Caenorhabditis elegans; [4],43%
same,mortality at 100 ppm,Caenorhabditis elegans; [4],59%
same,mortality at 200 ppm,Caenorhabditis elegans; [4],71%
same,mortality at 300 ppm,Caenorhabditis elegans; [4],78%
same,mortality at 400 ppm,Caenorhabditis elegans; [4],83%
same,mortality at 50 ppm,Caenorhabditis elegans; 120 h,70%
same,mortality at 100 ppm,Caenorhabditis elegans; 120 h,85%
same,mortality at 200 ppm,Caenorhabditis elegans; 120 h,93%
same,mortality at 300 ppm,Caenorhabditis elegans; 120 h,97%
same,mortality at 400 ppm,Caenorhabditis elegans; 120 h,100%
same,mortality at 50 ppm,Caenorhabditis elegans; [5],66%
same,mortality at 100 ppm,Caenorhabditis elegans; [5],83%
same,mortality at 200 ppm,Caenorhabditis elegans; [5],92%
same,mortality at 300 ppm,Caenorhabditis elegans; [5],97%
same,mortality at 400 ppm,Caenorhabditis elegans; [5],100%
same,mortality at 50 ppm,Caenorhabditis elegans; 168 h,93%
same,mortality at 100 ppm,Caenorhabditis elegans; 168 h,99%
same,mortality at 200 ppm,Caenorhabditis elegans; 168 h,100%
same,mortality at 300 ppm,Caenorhabditis elegans; 168 h,100%
same,mortality at 400 ppm,Caenorhabditis elegans; 168 h,100%
same,mortality at 50 ppm,Caenorhabditis elegans; [6],92%
same,mortality at 100 ppm,Caenorhabditis elegans; [6],99%
same,mortality at 200 ppm,Caenorhabditis elegans; [6],100%
same,mortality at 300 ppm,Caenorhabditis elegans; [6],100%
same,mortality at 400 ppm,Caenorhabditis elegans; [6],100%
same,No. dead,"[1]; 6.25 ppm, 7 days after feeding",0
same,No. dead,[1]; [7],0
same,No. dead,"[1]; 12.5 ppm, 7 days after feeding",0
same,No. dead,[1]; [8],0
same,No. dead,"[1]; 25 ppm, 21 days after feeding",2
same,Days for pupation,[1]; 50 ppm,0 days
same,No. dead,"[1]; 50 ppm, 7 days after feeding",8
same,% wt reduction to control,"[1]; 50 ppm, 21 days after feeding",0%
same,"Mean wt of survived larvae, mg","[1]; 50 ppm, 21 days after feeding",0 mg
same,No. dead,"[1]; 50 ppm, 21 days after feeding",10
same,mortality at 6.25 ppm,[1]; [9],0%
same,mortality at 12.5 ppm,[1]; [10],0%
same,mortality at 50 ppm,"[1]; 168 h, 50 ppm, 7 days after feeding",80%
same,mortality at 6.25 ppm,[1]; [11],0%
same,mortality at 12.5 ppm,[1]; [12],0%
same,mortality at 25 ppm,"[1]; 504 h, 25 ppm, 21 days after feeding",20%
same,mortality at 50 ppm,[1]; [13],100%
